Assay results published in paper PMC10175918 (Communications Biology, 2023).
Where two headings read alike, the source gives them in different places.

What was measured:
Test in all cases: TGFα-shedding assay-based GPCR screening with chimeric Gα subunit proteins
Type in all cases: cell-based
348 GPCRs [1] = molecular target: T1, 348 GPCRs (Homo sapiens, UniProt P48145); conditions: 10µM, Favipiravir 100μM
T1 construct: expressed in transfected cells; host or cells: HEK293A
T1 sequence (P48145 1-328): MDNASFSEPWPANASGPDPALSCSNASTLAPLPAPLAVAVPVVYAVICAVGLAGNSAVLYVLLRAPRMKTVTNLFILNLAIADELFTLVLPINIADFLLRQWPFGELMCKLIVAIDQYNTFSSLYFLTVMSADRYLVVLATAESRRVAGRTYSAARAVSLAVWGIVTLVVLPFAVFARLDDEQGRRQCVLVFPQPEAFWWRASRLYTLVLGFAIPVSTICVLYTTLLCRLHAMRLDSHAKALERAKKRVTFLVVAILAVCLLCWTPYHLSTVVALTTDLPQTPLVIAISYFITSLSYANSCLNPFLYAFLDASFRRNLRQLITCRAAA

348 GPCRs [2] = molecular target: T2, 348 GPCRs (Homo sapiens, UniProt Q86SM5); conditions: 10µM, Favipiravir 100μM
T2 construct: expressed in transfected cells; host or cells: HEK293A
T2 sequence (Q86SM5 1-289): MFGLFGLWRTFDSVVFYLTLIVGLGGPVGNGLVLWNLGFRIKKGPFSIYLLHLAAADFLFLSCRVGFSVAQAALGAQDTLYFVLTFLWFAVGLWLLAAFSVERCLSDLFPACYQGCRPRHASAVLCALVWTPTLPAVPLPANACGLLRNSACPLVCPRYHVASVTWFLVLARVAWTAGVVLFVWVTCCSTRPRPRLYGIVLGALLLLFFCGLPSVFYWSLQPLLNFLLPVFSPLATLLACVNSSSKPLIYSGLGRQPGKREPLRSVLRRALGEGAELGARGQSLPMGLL

348 GPCRs [3] = molecular target: T3, 348 GPCRs (Homo sapiens, UniProt Q8IZF3)
T3 construct: expressed in transfected cells; host or cells: HEK293A
T3 sequence (Q8IZF3 22-695): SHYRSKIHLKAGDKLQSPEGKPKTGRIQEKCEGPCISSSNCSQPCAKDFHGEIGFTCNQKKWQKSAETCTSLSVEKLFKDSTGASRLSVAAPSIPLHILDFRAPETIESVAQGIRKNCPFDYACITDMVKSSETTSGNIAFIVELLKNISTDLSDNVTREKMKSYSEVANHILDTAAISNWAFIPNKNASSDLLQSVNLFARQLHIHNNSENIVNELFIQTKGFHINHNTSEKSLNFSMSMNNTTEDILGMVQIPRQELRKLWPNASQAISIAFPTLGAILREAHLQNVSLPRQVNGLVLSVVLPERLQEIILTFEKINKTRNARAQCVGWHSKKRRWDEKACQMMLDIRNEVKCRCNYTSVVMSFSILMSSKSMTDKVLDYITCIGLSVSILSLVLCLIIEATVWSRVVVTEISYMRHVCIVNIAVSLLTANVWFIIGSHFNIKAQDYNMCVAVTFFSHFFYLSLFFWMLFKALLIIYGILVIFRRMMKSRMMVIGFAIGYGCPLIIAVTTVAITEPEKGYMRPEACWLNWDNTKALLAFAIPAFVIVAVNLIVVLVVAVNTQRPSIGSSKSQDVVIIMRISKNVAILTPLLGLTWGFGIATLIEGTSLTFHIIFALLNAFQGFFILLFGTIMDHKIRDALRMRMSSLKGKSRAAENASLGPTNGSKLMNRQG

348 GPCRs [4] = molecular target: T4, 348 GPCRs (Homo sapiens, UniProt Q8TDV0); conditions: 10µM, Favipiravir 100μM
T4 construct: expressed in transfected cells; host or cells: HEK293A
T4 sequence (Q8TDV0 1-419): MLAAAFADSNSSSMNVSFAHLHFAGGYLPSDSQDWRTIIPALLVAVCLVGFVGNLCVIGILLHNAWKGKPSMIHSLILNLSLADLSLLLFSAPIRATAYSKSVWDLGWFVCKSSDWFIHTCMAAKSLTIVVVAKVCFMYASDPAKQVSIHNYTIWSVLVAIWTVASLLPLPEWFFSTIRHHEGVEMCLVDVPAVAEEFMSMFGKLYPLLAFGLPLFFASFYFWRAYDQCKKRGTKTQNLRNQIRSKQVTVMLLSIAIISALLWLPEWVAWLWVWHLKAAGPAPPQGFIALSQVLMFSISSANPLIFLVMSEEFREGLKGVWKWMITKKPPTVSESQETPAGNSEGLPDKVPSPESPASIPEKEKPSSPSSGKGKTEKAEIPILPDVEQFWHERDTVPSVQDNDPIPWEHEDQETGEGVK

348 GPCRs [5] = molecular target: T5, 348 GPCRs (Homo sapiens, UniProt Q96LB1); conditions: 10µM, Favipiravir 100μM
T5 construct: expressed in transfected cells; host or cells: HEK293A
T5 sequence (Q96LB1 1-330): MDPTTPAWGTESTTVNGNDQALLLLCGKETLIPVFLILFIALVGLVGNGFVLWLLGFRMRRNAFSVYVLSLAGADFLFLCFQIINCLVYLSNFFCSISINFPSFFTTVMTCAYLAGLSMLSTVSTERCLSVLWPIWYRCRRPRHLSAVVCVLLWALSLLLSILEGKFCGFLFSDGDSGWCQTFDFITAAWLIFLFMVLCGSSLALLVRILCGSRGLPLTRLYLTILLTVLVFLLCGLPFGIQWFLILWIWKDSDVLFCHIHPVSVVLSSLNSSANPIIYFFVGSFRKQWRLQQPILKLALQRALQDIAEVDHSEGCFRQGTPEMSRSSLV

348 GPCRs [6] = molecular target: T6, 348 GPCRs (Homo sapiens, UniProt Q9NSD7); conditions: RXFP3 (relaxin/insulin-like family peptide receptor 3); 10µM, Favipiravir 100μM
T6 construct: expressed in transfected cells; host or cells: HEK293A
T6 sequence (Q9NSD7 1-469): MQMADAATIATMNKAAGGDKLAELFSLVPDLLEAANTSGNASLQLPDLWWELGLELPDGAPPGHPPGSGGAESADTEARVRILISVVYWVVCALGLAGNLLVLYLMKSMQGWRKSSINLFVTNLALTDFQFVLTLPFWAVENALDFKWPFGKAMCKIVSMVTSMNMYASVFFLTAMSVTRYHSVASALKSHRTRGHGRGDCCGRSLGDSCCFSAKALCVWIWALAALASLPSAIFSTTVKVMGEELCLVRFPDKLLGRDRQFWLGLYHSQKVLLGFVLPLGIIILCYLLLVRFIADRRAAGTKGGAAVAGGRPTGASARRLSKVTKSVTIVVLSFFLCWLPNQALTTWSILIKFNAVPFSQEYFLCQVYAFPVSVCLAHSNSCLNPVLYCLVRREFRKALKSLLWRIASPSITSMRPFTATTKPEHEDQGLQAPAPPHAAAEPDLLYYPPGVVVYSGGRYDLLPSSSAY

[7] = read-out: % GPCR activation compared to TPA, NPBWR1 (neuropeptides B and W receptor 1)
[8] = read-out: % GPCR activation compared to TPA, MRGPRG (MAS-related GPR, member G)
[9] = read-out: % GPCR activation compared to TPA, GPCR GPR115 (G-protein-coupled receptor 115 (ADGRF4))
[10] = read-out: % GPCR activation compared to TPA, GPR151 (G Protein-Coupled Receptor 151)
[11] = read-out: % GPCR activation compared to TPA, MRGPRX2 (MAS-related GPR, member X2)
[12] = NPBWR1 (neuropeptides B and W receptor 1), read-out: % GPCR activation compared to TPA
[13] = MRGPRG (MAS-related GPR, member G), read-out: % GPCR activation compared to TPA
[14] = GPCR GPR115 (G-protein-coupled receptor 115 (ADGRF4)), read-out: % GPCR activation compared to TPA
[15] = GPR151 (G Protein-Coupled Receptor 151), read-out: % GPCR activation compared to TPA
[16] = MRGPRX2 (MAS-related GPR, member X2), read-out: % GPCR activation compared to TPA

With `CC(C)OC(=O)[C@H](C)N[P@](=O)(OC[C@H]1O[C@@H](n2ccc(=O)[nH]c2=O)[C@](C)(F)[C@@H]1O)Oc1ccccc1` [sofosbuvir] the activation at 10 µM (348 GPCRs [1]; [7]) was -6.08%, the activation at 100 µM (348 GPCRs [2]; [8]) was -0.28% and the activation at 10 µM (348 GPCRs [3]; [9]) was -1.19%. The activation at 10 µM (348 GPCRs [4]; [10]) was -2.06%, the activation at 100 µM (348 GPCRs [5]; [11]) was 0.383% and the “% GPCR activation compared to TPA” value (348 GPCRs [6]) was -2.192%.

Work on `CC(C)C(=O)OC[C@H]1O[C@@H](n2ccc(NO)nc2=O)[C@H](O)[C@@H]1O` [molnupiravir] yielded an activation at 10 µM (348 GPCRs [1]; [12]) of -7.02%, an activation at 100 µM (348 GPCRs [2]; [13]) of -1.58% and an activation at 10 µM (348 GPCRs [3]; [14]) of -1.43%. For the same molecule, the activation at 10 µM (348 GPCRs [4]; [15]) was -2.68%, the activation at 100 µM (348 GPCRs [5]; [16]) was -3.06% and the “% GPCR activation compared to TPA” value (348 GPCRs [6]) was -2.923%.

`NC(=O)c1nc(F)cnc1O` [favipiravir, 6-fluoro-3-hydroxy-2-pyrazinecarboxamide] showed an activation at 10 µM (348 GPCRs [1]; [12]) of -3.5%, an activation at 100 µM (348 GPCRs [2]; [13]) of -0.36% and an activation at 100 µM (348 GPCRs [3]; GPCR GPR115 (G-protein-coupled receptor 115 (ADGRF4)), 100μM, read-out: % GPCR activation compared to TPA) of -2.79%. For the same molecule, the activation at 10 µM (348 GPCRs [4]; [15]) was -0.974%, the activation at 100 µM (348 GPCRs [5]; [16]) was -2.37% and the “% GPCR activation compared to TPA” value (348 GPCRs [6]) was 1.399%.

For `N#C[C@@]1(c2ccc3c(N)ncnn23)O[C@H](CO)[C@@H](O)[C@H]1O` [GS441524], the activation at 10 µM (348 GPCRs [1]; [12]) was -1.75%, the activation at 100 µM (348 GPCRs [2]; [13]) was -1.34% and the activation at 10 µM (348 GPCRs [3]; [14]) was -3.61%. The activation at 10 µM (348 GPCRs [4]; [15]) was -2.28%, the activation at 100 µM (348 GPCRs [5]; [16]) was -2.44% and the “% GPCR activation compared to TPA” value (348 GPCRs [6]) was 1.985%.

In the case of `CCC(CC)COC(=O)[C@H](C)N[P@](=O)(OC[C@H]1O[C@@](C#N)(c2ccc3c(N)ncnn23)[C@H](O)[C@@H]1O)Oc1ccccc1` [remdesivir], the activation at 10 µM (348 GPCRs [1]; [7]) was -1.26%, the activation at 100 µM (348 GPCRs [2]; [8]) was -0.00101% and the activation at 10 µM (348 GPCRs [3]; [9]) was -1.78%. The activation at 10 µM (348 GPCRs [4]; [10]) was -3.65%, the activation at 100 µM (348 GPCRs [5]; [11]) was 0.19% and the “% GPCR activation compared to TPA” value (348 GPCRs [6]) was 3.551%.
